This is an account of results in patent publication US20230233650A1, “NOVEL FATTY ACID MODIFIED UROCORTIN 2 DERIVATIVES AND THE USES THEREOF” (Novo Nordisk A/S, priority 2021, published 2023).

Like-named read-outs stand apart in the source and are kept apart here. Numbered stars: 1 amine (or outer) side, 2 acyl side, 3 side chain; on linkers, the order of the positions; unused ones are H or OH. Side chains are listed from the residue outwards. Ends that are not written are not given here. Peptide text beside a SMILES is read from it. * marks the point of attachment. C20 diacid = O=C(O)CCCCCCCCCCCCCCCCCCC(=O)*; γGlu = O=C(O)[C@H](CCC(=O)[*:2])N[*:1]; AEEA = NCCOCCOCC(=O)O

The target in one series is T1, Human CRF1 receptor (Homo sapiens, UniProt P34998).
T1 construct: host or cells: CHO-K1 (membrane preparation)
T1 sequence (P34998 24-415): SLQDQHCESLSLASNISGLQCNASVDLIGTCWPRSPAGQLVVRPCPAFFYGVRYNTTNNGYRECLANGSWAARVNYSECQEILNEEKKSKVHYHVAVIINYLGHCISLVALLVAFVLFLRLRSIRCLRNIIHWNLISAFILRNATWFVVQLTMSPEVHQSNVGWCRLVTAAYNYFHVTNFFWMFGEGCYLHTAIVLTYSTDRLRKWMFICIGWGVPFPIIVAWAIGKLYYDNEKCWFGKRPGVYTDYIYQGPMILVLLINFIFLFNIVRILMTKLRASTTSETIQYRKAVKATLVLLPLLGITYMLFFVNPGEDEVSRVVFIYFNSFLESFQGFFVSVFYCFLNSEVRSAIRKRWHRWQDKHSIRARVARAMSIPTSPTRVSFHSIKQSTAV
As to the kind of experiment: CRF1 receptor binding, scintillation proximity assay (SPA). The conditions noted are these: displacement of [125I]-Sauvagine, CHO-K1 cell membranes. Here is the method:
(§1) The purpose of this example was to test the in vitro binding of the compounds of the invention to receptor subtypes CRF1 and CRF2. The in vitro binding of the compounds was determined in a scintillation proximity assay (SPA) as described below. The native, human Ucn1 and Ucn2 peptides are included as references. Scintillation Proximity Assay: […] Both cell lines were cultured at 37° C. in a humidified atmosphere with 5% CO2. […] Membranes were prepared by the following protocol: cultured cells were washed twice with cold Dulbecco’s phosphate buffered saline and detached using TrypLE™ (ThermoFisher) and transferred to tubes and centrifuged for 5 minutes at 1000 g at +4° C. Pellets were resuspended in ice cold homogenization buffer (20 mM Hepes pH 7.1, 5 mM MgCl2, 1 mg/ml Bacitracin with 2 complete EDTA-free protease inhibitor cocktail tablets/50 ml (Roche)) and then homogenized for 30 seconds using a Ultra-Turrax T25 tissue homogenizer (IKA) at medium speed. The homogenate was centrifuged at 35,000 g for 15 minutes at +4° C. using an ultracentrifuge, and the supernatant was discarded, and fresh homogenization buffer was added. Homogenization of the pellet was repeated a total of three times. The final pellet was resuspended in a few millilitres of homogenization buffer and protein concentration was determined using the Bradford method. The membrane preparation was transferred to cryotubes, and the aliquots were stored at -80° C. Each membrane preparation was subsequently titrated to give an appropriate window in the assay. Test procedure: […] Plates were sealed and incubated at 25° C. for 2 hours in a plate shaker set at 400 rpm and thereafter centrifuged at 1500 rpm for 10 minutes. SPA plates were let to stand at room temperature for about 16 hours prior to reading on microplate scintillation counter. Displacement of radioligand was measured as reduction in luminescence, and IC50 values were calculated by nonlinear regression analysis of four parameter sigmoidal dose-response curves.
Background: In a scintillation proximity assay essentially only radioactivity close to the scintillant gives light.

For a further series, the target named is T2, Human CRF2 receptor (Homo sapiens, UniProt Q13324).
T2 construct: host or cells: CHO-K1 (membrane preparation)
T2 sequence (Q13324 1-411): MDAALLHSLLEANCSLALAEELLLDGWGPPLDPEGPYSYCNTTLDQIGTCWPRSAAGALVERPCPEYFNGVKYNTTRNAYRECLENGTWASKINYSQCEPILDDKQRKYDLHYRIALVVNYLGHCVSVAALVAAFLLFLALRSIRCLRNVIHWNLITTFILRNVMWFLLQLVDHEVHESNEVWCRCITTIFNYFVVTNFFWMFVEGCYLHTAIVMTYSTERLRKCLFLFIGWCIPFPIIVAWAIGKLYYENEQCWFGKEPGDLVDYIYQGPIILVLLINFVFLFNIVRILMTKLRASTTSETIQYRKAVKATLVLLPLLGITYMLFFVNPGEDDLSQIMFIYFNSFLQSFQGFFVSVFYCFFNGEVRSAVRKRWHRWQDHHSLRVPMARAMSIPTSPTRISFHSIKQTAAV
As to the kind of experiment: CRF2 receptor binding, scintillation proximity assay (SPA). The conditions noted are these: displacement of [125I]-Sauvagine, CHO-K1 cell membranes. Here is the method: as §1

The nature of series [1]: Physical stability of liquid formulation (visible particles, turbidity). It counts as physicochemical. To be noted: 8 mM sodium phosphate; for Particle formation onset: pH 7.4, 31-37 mg/mL (Compound 7: 21 mg/mL), 37° C., 2 weeks, daily rotation. As to the method: The purpose of the study was to evaluate the physical stability of a liquid pharmaceutical formulation comprising test compound. The physical stability was determined as the formation of visible particles and the change in turbidity over time.
Test procedures: Test compound was dissolved in 8 mM sodium phosphate, pH 7.4 to a concentration of 31-37 mg/mL in vials (except for Compound 7 which was dissolved to a concentration of 21 mg/mL and Compound 5 which was not soluble at concentrations of ≥20 mg/mL). The vials were incubated at 37° C. for 2 weeks. Every day the vials were rotated end-to-end for 1 minute, 30 rounds. Every second day the vials were placed in front of a black background with strong LED light (Schott light source, KL2500) illuminating from below and a picture for analysis was taken.
Analysis: “Average pixel intensity” is a measure of turbidity of a liquid solution. It was measured by taking the average pixel intensity, ranging from 0 (black) to 255 (white), in a small square of a digital image of the glass vials containing a liquid solution and results are reported in FIG. 1. “Particle density” is a measure of visible particles in a liquid solution. It was measured by counting the number of visible particles in a region of a digital image of the glass vial containing a liquid solution and dividing with the area of the region and the results are reported in FIG. 2.

The conditions of series [2]: for Average purity loss per week: 8 mM sodium phosphate buffer pH 7.4, 0.7-1.1 mM, 37° C., 0-4 weeks, UPLC.
Excerpt: The purpose of the study was to evaluate the chemical stability of a liquid pharmaceutical formulation comprising test compound. The chemical stability was be determined by measuring test compound purity loss (i.e. reduction of test compound relative to other species in the sample) over time using ultra-performance liquid chromatography (UPLC) coupled to an ultra-violet detector operated in reversed-phase mode.
Equipment and analysis conditions: Acquity UPLC I-Class instrument (Waters, Milford, US) together with either an Acquity UPLC CSH Fluorophenyl column (PN. 186005353 from Waters, Milford, US) or an Acquity Premier CSH column (PN. 186009462 from Waters, Milford, US), both having the dimensions 150 × 2.1 mm, particle diameter 1.7 µm and kept at 30° C., was used for the test. Mobile phase A was 0.1% vol/vol trifluoroacetic acid in water and mobile phase B was 0.09% vol/vol trifluoroacetic acid in acetonitrile. The flow rate was 0.35 mL/min while elution was done with a linear gradient of 26% to 40% mobile phase B over 50 min for the UPLC Fluorophenyl column and 30% to 50% mobile phase B over 50 min for the Premier CSH column. Detection was performed at UV 214 nm with 2 µL of volume injected from each sample.
Samples were kept in glass vials for quiescent storage in a 37° C. incubation chamber and subjected to analysis after 0, 1, 2, 3 and 4 weeks. Samples were analysed using UPLC (as described above) with chromatogram peak area as a measure of test compound concentration. Purity was determined at each timepoint as the fraction, given in %, of test compound relative to other species present in the sample. The purity loss over time is the relative difference in % test compound between timepoints and it is reported in Table 7 as the average from the five timepoints.

A word on the IC50: it is the concentration at which inhibition is half-maximal. Lower therefore signals inhibition by little substance. For the compound `CC[C@H](C)[C@H](NC(=O)[C@H](CCCNC(=N)N)NC(=O)[C@H](C)NC(=O)[C@H](CC(N)=O)NC(=O)[C@@H](NC(=O)[C@@H](NC(=O)[C@H](C)NC(=O)[C@H](CCC(N)=O)NC(=O)[C@H](CCC(=O)O)NC(=O)[C@H](CCCNC(=N)N)NC(=O)[C@H](C)NC(=O)[C@H](C)NC(=O)[C@H](CCCNC(=N)N)NC(=O)[C@H](C)NC(=O)[C@H](CCCNC(=N)N)NC(=O)[C@H](C)NC(=O)[C@H](CCC(N)=O)NC(=O)[C@H](CCC(=O)O)NC(=O)[C@H](CC(C)C)NC(=O)[C@H](CC(C)C)NC(=O)[C@@H](NC(=O)[C@H](CCC(N)=O)NC(=O)[C@H](CC(C)C)NC(=O)[C@H](CC(C)C)NC(=O)CNC(=O)[C@@H](NC(=O)[C@@H]1CCCN1C(=O)[C@@H](NC(=O)[C@H](CC(=O)O)NC(=O)[C@H](CC(C)C)NC(=O)[C@H](CO)NC(=O)[C@H](CC(C)C)NC(=O)[C@@H](NC(=O)[C@@H](NC(=O)[C@@H](N)CCCCNC(=O)COCCOCCNC(=O)COCCOCCNC(=O)CC[C@H](NC(=O)CC[C@H](NC(=O)CC[C@H](NC(=O)CCCCCCCCCCCCCCCCCCC(=O)O)C(=O)O)C(=O)O)C(=O)O)[C@@H](C)CC)C(C)C)C(C)C)[C@@H](C)CC)[C@@H](C)CC)[C@@H](C)O)[C@@H](C)O)C(=O)N[C@@H](CCC(=O)O)C(=O)N[C@@H](C)C(=O)N[C@@H](CCCNC(=N)N)C(=O)N[C@H](C(N)=O)C(C)C` [Compound 9] (H-K([AEEA-AEEA-γGlu-γGlu-γGlu-C20 diacid])IVLSLDVPIGLLQILLEQARARAAREQATTNARIEARV-NH2), the results for the 50% inhibitory concentration (IC50) on Human CRF1 receptor and at Human CRF2 receptor were more than 1 µM and 0.897 µM, respectively.

On to `CC[C@H](C)[C@H](NC(=O)[C@H](CCC(=O)O)NC(=O)[C@H](C)NC(=O)[C@H](CC(N)=O)NC(=O)[C@@H](NC(=O)[C@@H](NC(=O)[C@H](C)NC(=O)[C@H](CCC(N)=O)NC(=O)[C@H](CCC(=O)O)NC(=O)[C@H](CCCNC(=N)N)NC(=O)[C@H](C)NC(=O)[C@H](C)NC(=O)[C@H](CCCNC(=N)N)NC(=O)[C@H](C)NC(=O)[C@H](CCCNC(=N)N)NC(=O)[C@H](C)NC(=O)[C@H](CCC(N)=O)NC(=O)[C@H](CCC(=O)O)NC(=O)[C@H](CC(C)C)NC(=O)[C@H](CC(C)C)NC(=O)[C@@H](NC(=O)[C@H](CCC(N)=O)NC(=O)[C@H](CC(C)C)NC(=O)[C@H](CC(C)C)NC(=O)CNC(=O)[C@@H](NC(=O)[C@@H]1CCCN1C(=O)[C@@H](NC(=O)[C@H](CC(=O)O)NC(=O)[C@H](CC(C)C)NC(=O)[C@H](CO)NC(=O)[C@H](CC(C)C)NC(=O)[C@@H](NC(=O)[C@@H](NC(=O)[C@@H](N)CCCCNC(=O)COCCOCCNC(=O)COCCOCCNC(=O)CC[C@H](NC(=O)CC[C@H](NC(=O)CC[C@H](NC(=O)CCCCCCCCCCCCCCCCCCC(=O)O)C(=O)O)C(=O)O)C(=O)O)[C@@H](C)CC)C(C)C)C(C)C)[C@@H](C)CC)[C@@H](C)CC)[C@@H](C)O)[C@@H](C)O)C(=O)N[C@@H](CCC(=O)O)C(=O)N[C@@H](C)C(=O)N[C@@H](CCCNC(=N)N)C(=O)N[C@H](C(N)=O)C(C)C` [Compound 10] (H-K([AEEA-AEEA-γGlu-γGlu-γGlu-C20 diacid])IVLSLDVPIGLLQILLEQARARAAREQATTNAEIEARV-NH2), for which the IC50 at Human CRF1 receptor was more than 1 µM; at Human CRF2 receptor, 0.569 µM.

For `CC[C@H](C)[C@H](NC(=O)[C@H](CCC(=O)O)NC(=O)[C@H](C)NC(=O)[C@H](CC(N)=O)NC(=O)[C@@H](NC(=O)[C@@H](NC(=O)[C@H](C)NC(=O)[C@H](CCC(N)=O)NC(=O)[C@H](CCC(=O)O)NC(=O)[C@H](CCCNC(=N)N)NC(=O)[C@H](C)NC(=O)[C@H](C)NC(=O)[C@H](CCCNC(=N)N)NC(=O)[C@H](C)NC(=O)[C@H](CCCNC(=N)N)NC(=O)[C@H](C)NC(=O)[C@H](CCC(N)=O)NC(=O)[C@H](CCC(=O)O)NC(=O)[C@H](CC(C)C)NC(=O)[C@H](CC(C)C)NC(=O)[C@@H](NC(=O)[C@H](CCC(N)=O)NC(=O)[C@H](CC(C)C)NC(=O)[C@H](CC(C)C)NC(=O)CNC(=O)[C@@H](NC(=O)[C@@H]1CCCN1C(=O)[C@@H](NC(=O)[C@H](CC(=O)O)NC(=O)[C@H](CC(C)C)NC(=O)[C@H](CO)NC(=O)[C@H](CC(C)C)NC(=O)[C@@H](NC(=O)[C@@H](N)CCCCNC(=O)COCCOCCNC(=O)COCCOCCNC(=O)CC[C@H](NC(=O)CC[C@H](NC(=O)CC[C@H](NC(=O)CCCCCCCCCCCCCCCCCCC(=O)O)C(=O)O)C(=O)O)C(=O)O)C(C)C)C(C)C)[C@@H](C)CC)[C@@H](C)CC)[C@@H](C)O)[C@@H](C)O)C(=O)N[C@@H](CC(C)C)C(=O)N[C@@H](CCC(=O)O)C(=O)N[C@@H](CCCNC(=N)N)C(=O)N[C@H](C(N)=O)C(C)C` [Compound 11] (H-K([AEEA-AEEA-γGlu-γGlu-γGlu-C20 diacid])VLSLDVPIGLLQILLEQARARAAREQATTNAEILERV-NH2), the IC50 is more than 1 µM on Human CRF1 receptor and 0.196 µM on Human CRF2 receptor.

For “DNPSLSIDLTFHLLRTLLELARTQSQRERAEQNRIIFDSV-NH2 [Compound 1]”, the IC50 on Human CRF2 receptor is 0.00012 µM.

With “N{ε}-[[[(4S)-4-carboxy-4-[[(4S)-4-carboxy-4-[[(4S)-4-carboxy-4-(19-carboxynonadecanoylamino)butanoyl]amino]butanoyl]amino]butanoyl]amino]ethoxy]ethoxy]a cetyl]amino]ethoxy]ethoxy]acetyl]Lys-[Glu33]-hUcn2 [Compound 6]”, in series [1], the Particle formation onset was 1 days. The “Average purity loss per week” value in series [2] is reported as 0.90%.

With “N{ε}-[[[(4S)-4-carboxy-4-[[(4S)-4-carboxy-4-[[(4S)-4-carboxy-4-(19-carboxynonadecanoylamino)butanoyl]amino]butanoyl]amino]butanoyl]amino]ethoxy]ethoxy]a cetyl]amino]ethoxy]ethoxy]acetyl]Lys-[Glu36]-hUcn2 [Compound 7]”, the Particle formation onset in series [1] was 7 days. The “Average purity loss per week” value in series [2] is 3.95%.

With “N{ε}-[[[(4S)-4-carboxy-4-[[(4S)-4-carboxy-4-[[(4S)-4-carboxy-4-(19-carboxynonadecanoylamino)butanoyl]amino]butanoyl]amino]butanoyl]amino]ethoxy]ethoxy]a cetyl]amino]ethoxy]ethoxy]acetyl]Lys-[Glu37]-hUcn2 [Compound 8]”, the “Average purity loss per week” value in series [2] is recorded as 2.43%.

On to “N{ε}-[[[(4S)-4-carboxy-4-[[(4S)-4-carboxy-4-[[(4S)-4-carboxy-4-(19-carboxynonadecanoylamino)butanoyl]amino]butanoyl]amino]butanoyl]amino]ethoxy]ethoxy]a cetyl]amino]ethoxy]ethoxy]acetyl]Lys-hUcn2 [Compound 5]”, for which the results for the “Solubility (not soluble at concentrations of)” value in series [1] (pH 7.4) and in series [2] (pH 7.4) were less than 20 mg/mL and less than 700 µM, respectively. Moreover, the Particle formation onset entry in series [1] was “Not soluble”. For the same compound, in series [2], the “Average purity loss per week” value is reported as “Not soluble”.
